Results reported in ChEMBL document CHEMBL3885861, “Open TG-GATES”.

Organism: Rattus norvegicus
Assay: Open TG-GATES - Regimen: Single
Type: toxicity, organism-based, Sprague-Dawley
Set-up: regimen Single, gender Male, age 6 weeks
Settings: in vivo, sc, 2 mg/kg, route subcutaneous injection, dose 2000 ug/Kg, dose level High; for APTT / Bas / Eos / Fbg / Hb / Ht / Lym / MCH / MCHC / MCV / Mono / Neu / PT / Plat / RBC / Ret / WBC: tissue Blood; for KIDNEY_L / KIDNEY_R / KIDNEY_TOTAL: tissue Kidney; for LIVER: tissue Liver; for A/G / ALP / ALT / AST / BUN / CRE / Ca / Cl / DBIL / GLC / IP / K / LDH / Na / PL / RALB / TBIL / TC / TG / TP / gamma-GTP: tissue Plasma

CC(=O)O.N=C(N)NCCC[C@@H](NC(=O)[C@@H]1CCCN1C(=O)[C@@H]1CSSCCC(=O)N[C@@H](Cc2ccc(O)cc2)C(=O)N[C@@H](Cc2ccccc2)C(=O)N[C@@H](CCC(N)=O)C(=O)N[C@@H](CC(N)=O)C(=O)N1)C(=O)NCC(N)=O [DESMOPRESSIN ACETATE]
TERMINAL_BW (3 h): 202.2 g
APTT (3 h): 18 s
Bas (3 h): 0%
Eos (3 h): 1.6%
Fbg (3 h): 237.8 mg/dL
Hb (3 h): 12.9 g/dL
Ht (3 h): 39.6%
Lym (3 h): 64.8%
MCH (3 h): 21.3 pg
MCHC (3 h): 32.6%
MCV (3 h): 65.5 fL
Mono (3 h): 10.6%
Neu (3 h): 22.8%
PT (3 h): 12.3 s
Plat (3 h): 117.4 x10_4/uL
RBC (3 h): 606.2 x10_4/ul
Ret (3 h): 9.2%
WBC (3 h): 85.4 x10_2/uL
KIDNEY_L (3 h): 0.9 g
KIDNEY_R (3 h): 1 g
KIDNEY_TOTAL (3 h): 1.9 g
LIVER (3 h): 9.5 g
A/G (3 h): 2
ALP (3 h): 1436 IU/L
ALT (3 h): 38.6 IU/L
AST (3 h): 70.8 IU/L
BUN (3 h): 22.6 mg/dL
CRE (3 h): 0.4 mg/dL
Ca (3 h): 11.7 mg/dL
Cl (3 h): 97 meq/L
DBIL (3 h): 0.01 mg/dL
GLC (3 h): 217 mg/dL
IP (3 h): 9.5 mg/dL
K (3 h): 4.6 meq/L
LDH (3 h): 134.8 IU/L
Na (3 h): 130.6 meq/L
PL (3 h): 157.4 mg/dL
RALB (3 h): 4 g/dL
TBIL (3 h): 0.048 mg/dL
TC (3 h): 82.4 mg/dL
TG (3 h): 89 mg/dL
TP (3 h): 5.9 g/dL
gamma-GTP (3 h): 0.8 IU/L
TERMINAL_BW (6 h): 204.1 g
APTT (6 h): 18.4 s
Bas (6 h): 0%
Eos (6 h): 1.2%
Fbg (6 h): 247.9 mg/dL
Hb (6 h): 13.2 g/dL
Ht (6 h): 40%
Lym (6 h): 65.8%
MCH (6 h): 21.8 pg
MCHC (6 h): 33%
MCV (6 h): 66 fL
Mono (6 h): 11.8%
Neu (6 h): 21%
PT (6 h): 12.1 s
Plat (6 h): 120.4 x10_4/uL
RBC (6 h): 606.4 x10_4/ul
Ret (6 h): 10.1%
WBC (6 h): 106 x10_2/uL
KIDNEY_L (6 h): 1 g
KIDNEY_R (6 h): 1 g
KIDNEY_TOTAL (6 h): 2 g
LIVER (6 h): 9.3 g
A/G (6 h): 1.9
ALP (6 h): 1390.6 IU/L
ALT (6 h): 36 IU/L
AST (6 h): 64 IU/L
BUN (6 h): 31.6 mg/dL
CRE (6 h): 0.4 mg/dL
Ca (6 h): 11.1 mg/dL
Cl (6 h): 96.2 meq/L
DBIL (6 h): 0.016 mg/dL
GLC (6 h): 211.2 mg/dL
IP (6 h): 10.6 mg/dL
K (6 h): 4.5 meq/L
LDH (6 h): 122.2 IU/L
Na (6 h): 131 meq/L
PL (6 h): 157.4 mg/dL
RALB (6 h): 3.9 g/dL
TBIL (6 h): 0.084 mg/dL
TC (6 h): 92.4 mg/dL
TG (6 h): 49.4 mg/dL
TP (6 h): 5.9 g/dL
gamma-GTP (6 h): 1 IU/L
TERMINAL_BW (9 h): 202.3 g
APTT (9 h): 17.8 s
Bas (9 h): 0%
Eos (9 h): 1%
Fbg (9 h): 249 mg/dL
Hb (9 h): 12.8 g/dL
Ht (9 h): 39.2%
Lym (9 h): 74.4%
MCH (9 h): 20.9 pg
MCHC (9 h): 32.7%
MCV (9 h): 63.9 fL
Mono (9 h): 7.4%
Neu (9 h): 17%
PT (9 h): 12.5 s
Plat (9 h): 124.6 x10_4/uL
RBC (9 h): 613.2 x10_4/ul
Ret (9 h): 8.9%
WBC (9 h): 98.6 x10_2/uL
KIDNEY_L (9 h): 1 g
KIDNEY_R (9 h): 1 g
KIDNEY_TOTAL (9 h): 2 g
LIVER (9 h): 8.6 g
A/G (9 h): 2.2
ALP (9 h): 1194.8 IU/L
ALT (9 h): 29.6 IU/L
AST (9 h): 64.2 IU/L
BUN (9 h): 31.8 mg/dL
CRE (9 h): 0.3 mg/dL
Ca (9 h): 11.1 mg/dL
Cl (9 h): 98.6 meq/L
DBIL (9 h): 0.018 mg/dL
GLC (9 h): 197.4 mg/dL
IP (9 h): 10.7 mg/dL
K (9 h): 4.9 meq/L
LDH (9 h): 129.4 IU/L
Na (9 h): 132.8 meq/L
PL (9 h): 137.6 mg/dL
RALB (9 h): 3.8 g/dL
TBIL (9 h): 0.08 mg/dL
TC (9 h): 77.8 mg/dL
TG (9 h): 40.6 mg/dL
TP (9 h): 5.6 g/dL
gamma-GTP (9 h): 0.4 IU/L
TERMINAL_BW (24 h): 220.4 g
APTT (24 h): 16.2 s
Bas (24 h): 0%
Eos (24 h): 1%
Fbg (24 h): 236.7 mg/dL
Hb (24 h): 12.6 g/dL
Ht (24 h): 38.7%
Lym (24 h): 66.8%
MCH (24 h): 21.1 pg
MCHC (24 h): 32.7%
MCV (24 h): 64.6 fL
Mono (24 h): 10.6%
Neu (24 h): 21.2%
PT (24 h): 12.4 s
Plat (24 h): 121 x10_4/uL
RBC (24 h): 599 x10_4/ul
Ret (24 h): 9.6%
WBC (24 h): 88.8 x10_2/uL
KIDNEY_L (24 h): 1 g
KIDNEY_R (24 h): 1 g
KIDNEY_TOTAL (24 h): 2.1 g
LIVER (24 h): 10.4 g
A/G (24 h): 1.9
ALP (24 h): 1283.2 IU/L
ALT (24 h): 33.4 IU/L
AST (24 h): 60 IU/L
BUN (24 h): 20 mg/dL
CRE (24 h): 0.3 mg/dL
Ca (24 h): 11.1 mg/dL
Cl (24 h): 103.6 meq/L
DBIL (24 h): 0 mg/dL
GLC (24 h): 195.2 mg/dL
IP (24 h): 8.4 mg/dL
K (24 h): 5.4 meq/L
LDH (24 h): 128.4 IU/L
Na (24 h): 136.4 meq/L
PL (24 h): 150 mg/dL
RALB (24 h): 3.5 g/dL
TBIL (24 h): 0.014 mg/dL
TC (24 h): 81.4 mg/dL
TG (24 h): 110 mg/dL
TP (24 h): 5.3 g/dL
gamma-GTP (24 h): 1.4 IU/L
